Data reported in patent US12377082B2, “Nicorandil derivatives” (priority 2019, dated 2025).

How the values were obtained:
[1] = Pharmacokinetics (PK) in rat, oral dosing, plasma levels of parent drug nicorandil; assay type: in vivo, SD rats
Procedure: Pharmacokinetics (PK) Protocol: Rat
The dosing vehicle used in this study was PEG400. 1, 3, 10 mg/kg oral dosing was done in overnight fasted SD rats and the parent drug generated was monitored. Also presence of modified drug was checked. After oral (PO) dosing blood was collected by serial bleeding at 8 different time points in heparinised tubes. […] Supernatant was kept for analysis. […] Quantitative analysis was done by liquid chromatography tandem mass spectrometer (API3000 LC-MS/MS).

[2] = Conversion of Compound A to nicorandil in rat plasma (FIG. 2); assay type: in vitro ADME; conditions: various time points
[3] = Pharmacokinetics (PK) in dog, oral dosing; assay type: in vivo, Beagle dog
Procedure: Pharmacokinetics (PK) Protocol: Dog
0.5 ml blood was collected at each time point from the femoral vein via direct stick at defined time points. in tubes containing anticoagulant. […] Supernatant was kept for analysis. […] Quantitative analysis was done by liquid chromatography tandem mass spectrometer (API3000 LC-MS/MS).

- dose linearity of plasma exposure ([1]; rat, 1, 3, 10 mg/kg oral): displayed dose linearity
- modified drug detected in plasma ([1]; rat, oral): no modified drug was detected
- plasma exposure (in words) ([1]; rat, oral): excellent plasma exposure
- conversion to nicorandil [2]: Complete conversion to nicorandil
- plasma exposure compared (AUC and Cmax) ([3]; 3 mg/kg oral): significantly higher
- modified drug detected in plasma ([3]; oral): no modified drug was detected
- plasma exposure (in words) ([3]; oral): excellent plasma exposure
Compound: C[C@H](NC(=O)OC[n+]1cccc(C(=O)NCCO[N+](=O)[O-])c1)C1CCCCC1 [Compound 8, (S)-1-(((1-cyclohexylethylcarbamoyl)oxy)methyl)-3-((2-(nitroxy)ethyl)carbamoyl)pyridine-1-ium iodide]
